# Target: T1, Recombinant purified human CDK7 (Homo sapiens, UniProt P50613)
# T1 construct: purchased ThermoFisher PV3868
# Experiment: CDK7 activity inhibition, ADP-Glo kinase assay
# Format: biochemical
# Conditions: ATP 90 μM, MBP substrate, 2 hours 30° C.
# Protocol: Recombinant purified human CDK7 (ThermoFisher, PV3868) and ADP Glo Kinase Assay Kit (Promega, V9102) were used. CDK7 was diluted with 1× kinase reaction buffer (40 mM Tris-Cl, pH 7.5, 20 mM MgCl2, 0.1 mg/ml BSA and 50 μM DTT) and added to a 96 well plate (CDK7 final concentration per reaction: 50 ng). It was finally treated with the compound of the present invention to a 1% DMSO aqueous solution, and a substrate cocktail containing ATP (final concentration of 90 μM) and 0.2 μg/μl MBP (myelin basic protein) in a total of 25 μl reaction mass was added to a 96 well plate, thereby initiating the enzymatic reaction. After 2 hours of incubation (30° C.), an equal volume (25 μl per reaction) of ADP Glo was added and incubated at room temperature for 60 minutes (30° C.). Thereafter, kinase detection reagent (50 μl per reaction) was added and incubated at room temperature for 30 minutes (30° C.). The kinase activity was measured by the chemiluminescence method according to the ADP Glo Kinase Assay Kit instruction manual, and the CDK7 inhibitory activity of the compounds of the present invention was calculated.
# T1 sequence (P50613 whole entry): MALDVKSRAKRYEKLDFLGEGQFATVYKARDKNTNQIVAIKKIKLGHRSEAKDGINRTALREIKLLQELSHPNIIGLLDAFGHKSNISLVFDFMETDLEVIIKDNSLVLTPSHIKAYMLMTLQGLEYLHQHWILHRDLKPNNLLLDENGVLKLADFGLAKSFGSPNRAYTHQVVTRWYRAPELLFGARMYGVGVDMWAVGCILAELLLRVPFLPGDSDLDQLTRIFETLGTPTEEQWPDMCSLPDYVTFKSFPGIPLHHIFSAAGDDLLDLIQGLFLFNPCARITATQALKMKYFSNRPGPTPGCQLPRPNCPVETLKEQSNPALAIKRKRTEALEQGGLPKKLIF
# T1 sequence (P51946 whole entry partner): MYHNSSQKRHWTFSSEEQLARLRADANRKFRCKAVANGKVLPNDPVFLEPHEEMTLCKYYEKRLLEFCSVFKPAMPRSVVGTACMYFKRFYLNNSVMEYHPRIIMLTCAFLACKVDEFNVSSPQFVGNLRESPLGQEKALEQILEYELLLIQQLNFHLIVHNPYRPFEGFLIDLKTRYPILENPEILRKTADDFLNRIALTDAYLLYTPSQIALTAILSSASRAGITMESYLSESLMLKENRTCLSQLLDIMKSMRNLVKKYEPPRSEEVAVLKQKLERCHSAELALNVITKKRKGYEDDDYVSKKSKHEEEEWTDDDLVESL
# T1 sequence (P51948 whole entry partner): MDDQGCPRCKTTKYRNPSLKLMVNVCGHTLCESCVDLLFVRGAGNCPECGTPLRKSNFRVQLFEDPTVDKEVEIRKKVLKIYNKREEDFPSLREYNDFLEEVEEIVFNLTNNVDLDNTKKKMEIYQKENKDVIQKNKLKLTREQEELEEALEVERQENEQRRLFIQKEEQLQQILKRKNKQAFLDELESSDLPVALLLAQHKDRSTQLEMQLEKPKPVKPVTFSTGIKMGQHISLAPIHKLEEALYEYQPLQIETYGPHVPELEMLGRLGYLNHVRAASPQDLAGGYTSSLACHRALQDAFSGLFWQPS
row,IC50 [nM],Structure (SMILES)
1,40,"C=CC(=O)Nc1ccc(-c2cccc(C(C)C(=O)Nc3ncc(C4CC4)s3)c2)cn1 (centres unmarked) [Compound 2, N-(5-(3-(1-((5-cyclopropylthiazol-2-yl)amino)-1-oxopropan-2-yl)phenyl)pyridin-2-yl)acrylamide]"
2,35,"CC(C(=O)Nc1ncc(C2CC2)s1)c1cccc(-c2ccc(NC(=O)/C=C/CN(C)C)nc2)c1 (centres unmarked) [Compound 6, (E)-N-(5-(3-(1-((5-cyclopropylthiazol-2-yl)amino)-1-oxopropan-2-yl)phenyl)pyridin-2-yl)-4-(dimethylamino)but-2-enamide]"
3,92,"C=CC(=O)Nc1ccc(-c2csc(C(C)C(=O)Nc3ncc(Cl)s3)c2)cn1 (centres unmarked) [Compound 76, N-(5-(5-(1-((5-chlorothiazol-2-yl)amino)-1-oxopropan-2-yl)thiophen-3-yl)pyridin-2-yl)acrylamide]"
4,68,"C=CC(=O)Nc1cc(F)c(-c2cncc(C(C)C(=O)Nc3ncc(C(F)(F)F)s3)c2)cn1 (centres unmarked) [Compound 84, N-(4-fluoro-5′-(1-oxo-1-((5-(trifluoromethyl)thiazol-2-yl)amino)propan-2-yl)-[3,3′-bipyridin]-6-yl)acrylamide]"
5,16,"C=CC(=O)Nc1ncc(-c2cncc(C(C)C(=O)Nc3ncc(C(F)(F)F)s3)c2)cc1C#N (centres unmarked) [Compound 88, N-(5-cyano-5′-(1-oxo-1-((5-(trifluoromethyl)thiazol-2-yl)amino)propan-2-yl)-[3,3′-bipyridin]-6-yl)acrylamide]"
6,42,"C[C@H](C(=O)Nc1ncc(C(F)(F)F)s1)c1cccc(-c2cnc(NC(=O)/C=C/CN3CCOCC3)cn2)c1 [Compound 92, (S,E)-4-morpholino-N-(5-(3-(1-oxo-1-((5-(trifluoromethyl)thiazol-2-yl)amino)propan-2-yl)phenyl)pyrazin-2-yl)but-2-enamide]"
7,93,"C[C@H](C(=O)Nc1ncc(Cl)s1)c1cccc(-c2cnc(NC(=O)/C=C/CN(C)C)cn2)c1 [Compound 93, (S,E)-N-(5-(3-(1-((5-chlorothiazol-2-yl)amino)-1-oxopropan-2-yl)phenyl)pyrazin-2-yl)-4-(dimethylamino)but-2-enamide]"
8,14.5,"C[C@H](C(=O)Nc1ncc(Cl)s1)c1cccc(-c2cnc(NC(=O)/C=C/CN3CC4CC3CO4)cn2)c1 (stereo partly drawn) [Compound 94, (E)-4-(2-oxa-5-azabicyclo[2.2.1]heptan-5-yl)-N-(5-(3-((S)-1-((5-chlorothiazol-2-yl)amino)-1-oxopropan-2-yl)phenyl)pyrazin-2-yl)but-2-enamide]"

# Test system: MV-4-11 cells
# Experiment: MV-4-11 cell proliferation inhibition (CCK-8)
# Format: cell-based
# Conditions: Homo sapiens, MV4-11, MV-4-11, compound concentration 100 nM, 72 hours, read-out: Inhibition rate (%)
# Protocol: MV-4-11 cells are one of the acute myeloid leukemia cells with a Fms-like tyrosine kinase (FLT3) gene mutation, and these cells are used to test inhibition of proliferation and survival of leukemia cells.
# MV-4-11 cells cultured in a 96-well cell culture plate were treated with the compound of the present invention and cultured for 72 hours. Thereafter, the antiproliferative effect of the compound was assayed by the CCK-8 method using a tetrazolium salt.
row,Structure (SMILES),inhibition at 0.1 µM [%]
1,"C=CC(=O)Nc1ccc(-c2cc(C(C)C(=O)Nc3ncc(C4CC4)s3)ccn2)cn1 (centres unmarked) [Compound 50, N-(4-(1-((5-cyclopropylthiazol-2-yl)amino)-1-oxopropan-2-yl)-[2,3′-bipyridin]-6′-yl)acrylamide]",100

# Same assay, conditions: Homo sapiens, MV4-11, MV-4-11 proliferation, 72 hours
row,IC50 [nM],Structure (SMILES)
1,17.2,"C=CC(=O)Nc1ccc(-c2cc(C(C)C(=O)Nc3ncc(C4CC4)s3)ccn2)cn1 (centres unmarked) [Compound 50, N-(4-(1-((5-cyclopropylthiazol-2-yl)amino)-1-oxopropan-2-yl)-[2,3′-bipyridin]-6′-yl)acrylamide]"
2,9.1,"C=CC(=O)Nc1cnc(-c2cncc(C(C)C(=O)Nc3ncc(Cl)s3)c2)cn1 (centres unmarked) [Compound 61, N-(5-(5-(1-((5-chlorothiazol-2-yl)amino)-1-oxopropan-2-yl)pyridin-3-yl)pyrazin-2-yl)acrylamide]"
3,22.8,"C=CC(=O)Nc1cnc(-c2cncc(C(C)C(=O)Nc3ncc(OC)s3)c2)cn1 (centres unmarked) [Compound 66, N-(5-(5-(1-((5-methoxythiazol-2-yl)amino)-1-oxopropan-2-yl)pyridin-3-yl)pyrazin-2-yl)acrylamide]"
4,3.2,"C=CC(=O)Nc1cnc(-c2cncc(C(C)C(=O)Nc3ncc(SC)s3)c2)cn1 (centres unmarked) [Compound 71, N-(5-(5-(1-((5-(methylthio)thiazol-2-yl)amino)-1-oxopropan-2-yl)pyridin-3-yl)pyrazin-2-yl)acrylamide]"
5,16.7,"C=CC(=O)Nc1ccc(-c2csc(C(C)C(=O)Nc3ncc(CC)s3)c2)cn1 (centres unmarked) [Compound 77, N-(5-(5-(1-((5-ethylthiazol-2-yl)amino)-1-oxopropan-2-yl)thiophen-3-yl)pyridin-2-yl)acrylamide]"
